Data as given in patent publication US9023857B2, “Substituted 6-(2-aminobenzylamino)purine derivatives, their use as medicaments and preparations containing these compounds” (Univerzita Palackeho V Olomouci, priority 2009, dated 2015).

Assays:
CDK9 = CDK9 (Homo sapiens, UniProt P50750); conditions: Olomoucine II compared with Roscovitine; cited from earlier work
[1] = system: tumor suppressor protein p53; conditions: Olomoucine II compared with Roscovitine; cited from earlier work
[2] = system: C-terminal domain (CTD) of RNA polymerase II, serine 2 and serine 5; assay: Immunoblotting: phosphorylation of the C-terminal domain of RNA polymerase II; type: cell-based; conditions: 12 hours treatment, cell lines with incorporated SV40, all tested cell lines (FIG. 12A)
Description: Cell were detached with rubber policeman and washed three times with ice-cold PBS and lysed in buffer (50 mM Tris, pH 7.4, 250 mM NaCl, 5 mM EDTA, 50 mM NaF, 1 mM Na3VO4, 1% Nonidet P40) containing mixture of protease and phosphatase inhibitors (Sigma-Aldrich St Louis, Mo., USA). 20 μg of total proteins were separated by SDS-polyacrylamide gel electrophoresis (SDS-PAGE) on 8% or 10% gels and transferred onto nitrocellulose membranes. Membranes were blocked in 5% milk and 0.1% Tween 20 in PBS and probed overnight with specific monoclonal antibodies or rabbit polyclonal sera. Primary antibodies specific for RNA polymerase II (all from Santa Cruz Biotechnology, California, USA) included: (i) N-20 used at 1 μg/ml, (ii) H14, specific for form phosphorylated at phosphoserine 5, used at 6 μg/ml and (iii) H5, specific for form phosphorylated at phosphoserine 2 used at 4 μg/ml. Additional primary mAb used in immunblots included (iv) anti-p53 (DO-1, in house) used at 1 μg/ml, (v) anti-p21^WAF1 (118, in house), used at 1 μg/ml), (vi) anti-actin (A-2066, Sigma-Aldrich St Louis, Mo., USA) used at 1 μg/ml, (vii) anti-T-antigen (419, in house), used at 1 μg/ml. All primary antibodies were diluted in PBS containing 5% powdered milk; 0.1% Tween 20. Peroxidase conjugated rabbit anti-mouse immunoglobulin or porcine anti-rabbit immunoglobulin antisera (DAKO, Glostrup, Denmark) were used as the secondary antibodies and visualised with ECL reagents (Amersham-Pharmacia, Little Chalfont, UK).
Modulation of expression from the HIV promoter by CDKI treatment may be mediated by transcriptional regulation. At the C-terminus of the largest subunit of RNA Pol II is an important regulatory domain referred to as CTD (C-terminal domain). We therefore investigated the effect of CDKIs on CTD serine 2 and serine 5 phosphorylation. […] Although the functions of CDKs and RNA polymerase II were suppressed, the expression from incorporated viral promoters was enhanced.
Cell were detached with rubber policeman and washed three times with ice-cold PBS and lysed in buffer (50 mM Tris, pH 7.4, 250 mM NaCl, 5 mM EDTA, 50 mM NaF, 1 mM Na3VO4, 1% Nonidet P40) containing mixture of protease and phosphatase inhibitors (Sigma-Aldrich St Louis, Mo., USA). 20 μg of total proteins were separated by SDS-polyacrylamide gel electrophoresis (SDS-PAGE) on 8% or 10% gels and transferred onto nitrocellulose membranes. Membranes were blocked in 5% milk and 0.1% Tween 20 in PBS and probed overnight with specific monoclonal antibodies or rabbit polyclonal sera. […]

HSV-1 = assay: Plaque number reduction assay, HSV-1 on HFFF; type: cell-based, Herpes simplex virus type 1 strain 17
HSV-2 = assay: Plaque number reduction assay, HSV-2 on HFFF; type: cell-based, HSV-2 strain HG52
VV = type: cell-based, Vaccinia virus strain WR; conditions: Vaccinia virus on HFFF
HAd4 = assay: Plaque number reduction assay, HAd4 on A549; type: cell-based, Human adenovirus type 4 (HAdV-4) strain RI-6
HCMV = assay: Plaque number reduction assay, HCMV on HFFF; type: cell-based, Human cytomegalovirus strain Toledo
MV = MV syncytium reduction assay in B95a cells; type: cell-based, Measles virus wildtype strain WTFb
IV = type: cell-based, Influenza Virus H1N1 strain A/PR/8/34; conditions: MDCK cells
SV40 large T-antigen = type: cell-based; conditions: SV40-infected MCF-7 and T47D; 20 μM Roscovitine or 8 μM 105 (FIG. 8)
[3] = system: SV40 large T-antigen in COS-1 cells; assay: Expression from SV40 promoter incorporated in the cellular genome (COS-1 cells); type: cell-based; conditions: COS-1 cells (FIG. 10)
Description: Cell were detached with rubber policeman and washed three times with ice-cold PBS and lysed in buffer (50 mM Tris, pH 7.4, 250 mM NaCl, 5 mM EDTA, 50 mM NaF, 1 mM Na3VO4, 1% Nonidet P40) containing mixture of protease and phosphatase inhibitors (Sigma-Aldrich St Louis, Mo., USA). 20 μg of total proteins were separated by SDS-polyacrylamide gel electrophoresis (SDS-PAGE) on 8% or 10% gels and transferred onto nitrocellulose membranes. Membranes were blocked in 5% milk and 0.1% Tween 20 in PBS and probed overnight with specific monoclonal antibodies or rabbit polyclonal sera. Primary antibodies specific for RNA polymerase II (all from Santa Cruz Biotechnology, California, USA) included: (i) N-20 used at […] (ii) H14, specific for form phosphorylated at phosphoserine 5, used at 6 μg/ml and (iii) H5, specific for form phosphorylated at phosphoserine 2 used at 4 μg/ml. Additional primary mAb used in immunblots included (iv) anti-p53 (D0-1, in house, […]) used at 1 μg/ml, (v) anti-p21^WAF1 (118, in house), used at 1 μg/ml), (vi) anti-actin (A-2066, Sigma-Aldrich St Louis, Mo., USA) used at 1 μg/ml, (vii) anti-T-antigen (419, in house, Lane), used at 1 μg/ml. All primary antibodies were diluted in PBS containing 5% powdered milk; 0.1% Tween 20. […]

[4] = system: HIV promoter (pHIV-lacZ, extrachromosomal) in H1299-TAT cells; assay: β-galactosidase expression from pHIV-lacZ transiently transfected to H1299-TAT; conditions: H1299-TAT cells (FIG. 11)
[5] = system: CMV promoter (plasmid pCMV-lacZ); assay: β-galactosidase expression from transiently transfected pCMV-lacZ in MCF-7 and T47D; conditions: transiently transfected MCF-7 and T47D (FIG. 9)
[6] = system: HIV promoter integrated into cellular DNA (H1299-HIV cells); assay: β-galactosidase expression from pHIV-lacZ incorporated to cellular genome (H1299-HIV); conditions: HIV promoter integrated into cellular DNA (FIG. 11)

CDK9, sequence (P50750 whole entry, species assumed): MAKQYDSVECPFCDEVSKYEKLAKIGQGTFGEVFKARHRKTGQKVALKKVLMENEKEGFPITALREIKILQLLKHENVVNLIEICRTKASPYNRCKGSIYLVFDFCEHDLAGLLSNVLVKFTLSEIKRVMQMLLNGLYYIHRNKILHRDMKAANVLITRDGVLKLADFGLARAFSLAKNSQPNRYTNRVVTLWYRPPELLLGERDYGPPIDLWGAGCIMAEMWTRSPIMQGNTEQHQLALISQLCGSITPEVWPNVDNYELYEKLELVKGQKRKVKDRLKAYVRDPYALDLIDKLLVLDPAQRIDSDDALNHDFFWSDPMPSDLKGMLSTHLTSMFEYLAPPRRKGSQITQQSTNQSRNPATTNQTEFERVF
CDK9, sequence (O60563 whole entry partner, species assumed): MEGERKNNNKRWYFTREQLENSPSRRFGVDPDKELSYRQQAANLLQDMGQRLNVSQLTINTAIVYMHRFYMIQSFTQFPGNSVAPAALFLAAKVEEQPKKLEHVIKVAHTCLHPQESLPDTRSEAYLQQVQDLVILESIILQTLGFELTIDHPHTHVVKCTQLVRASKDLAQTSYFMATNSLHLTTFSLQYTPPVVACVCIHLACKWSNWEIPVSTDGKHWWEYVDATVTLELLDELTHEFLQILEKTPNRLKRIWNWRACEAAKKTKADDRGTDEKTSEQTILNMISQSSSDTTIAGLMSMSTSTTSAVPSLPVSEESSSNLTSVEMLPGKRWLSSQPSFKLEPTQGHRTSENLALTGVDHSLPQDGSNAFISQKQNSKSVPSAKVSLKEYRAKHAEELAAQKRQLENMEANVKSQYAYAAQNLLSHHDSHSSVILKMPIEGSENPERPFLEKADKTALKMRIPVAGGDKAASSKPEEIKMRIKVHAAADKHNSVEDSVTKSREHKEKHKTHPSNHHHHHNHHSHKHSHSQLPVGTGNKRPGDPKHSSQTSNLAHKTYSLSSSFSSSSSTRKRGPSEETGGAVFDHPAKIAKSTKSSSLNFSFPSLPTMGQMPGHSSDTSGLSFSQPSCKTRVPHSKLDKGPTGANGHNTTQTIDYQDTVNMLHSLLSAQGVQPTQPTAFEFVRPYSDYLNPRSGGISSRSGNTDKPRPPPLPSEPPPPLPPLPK

Structure (SMILES) | higher inhibitory activity for CDK9 (CDK9) | lower concentrations inducing nuclear accumulation and transcriptional activation of p53 [1] | phosphorylation of both serine 2 and serine 5 of RNA polymerase II CTD [2] | inhibition of virus replication (in words) (HSV-1) | inhibition of virus replication (in words) (HSV-2) | inhibition of virus replication (in words) (VV) | inhibition of virus replication (in words) (HAd4) | inhibition of virus replication (in words) (HCMV) | inhibition of virus replication (in words) (MV) | inhibition of virus replication (in words) (IV) | level of large T-antigen (SV40 large T-antigen) | large T-antigen expression [3] | expression from pHIV-lacZ (extrachromosomal location), β-galactosidase readout [4] | expression from CMV promoter (β-galactosidase activity) [5] | increase of reporter readout [6]
CC[C@H](CO)Nc1nc(NCc2ccccc2O)c2ncn(C(C)C)c2n1 [Olomoucine II] | 10 fold | 2-3 fold |  |  |  |  |  |  |  |  |  |  |  |  | 
CC[C@H](CO)Nc1nc(NCc2ccccc2)c2ncn(C(C)C)c2n1 [Roscovitine, 2-(R)-(1-Ethyl-2-hydroxyethylamino)-6-benzylamino-9-isopropylpurine, reference compound] |  |  | inhibited | did not inhibit | did not inhibit | no overt effect | inhibited HAd4 replication | equally sensitive | ineffective | ineffective | reduced level | stimulated large T-antigen expression | inhibited | inhibited expression | 2.5 times
